Target: human ACC2 (Homo sapiens (Human), UniProt O00763)
Assay: ACC2 assay, spectrophotometric 384 well assay (NADH-linked, coupled lactate dehydrogenase/pyruvate kinase reaction)
Format: biochemical
Details: hACC2 construct lacking the 128 N-terminal amino acids; 25° C., 340 nm over 15 minutes
Experimental: Spectrophotometric 384 Well Assay
Malonyl CoA formation by acetyl CoA carboxylases is stoichometrically linked to the consumption of ATP. ACC2 activity is measured in a NADH-linked kinetic method measuring ADP generated during the ACC reaction using a coupled lactate dehydrogenase/pyruvate kinase reaction.
For biological testing, a human ACC2 construct which lacks the 128 amino acids at the N-terminus for increased solubility (nt 385-6966 in Genbank entry AJ575592) is cloned. The protein is then expressed in insect cells using a baculoviral expression system. Protein purification is performed by anion exchange.
All compounds are dissolved in dimethyl sulfoxide (DMSO) to a concentration of 10 mM.
Assay reactions are then carried out in 384-well plates, with hACC2 in an appropriate dilution and at final assay concentrations (f.c.) of 100 mM Tris (pH 7.5), 10 mM trisodium citrate, 25 mM KHCO3, 10 mM MgCl2, 0.5 mg/mL BSA, 3.75 mM reduced L-glutathione, 15 U/mL lactate dehydrogenase, 0.5 mM phosphoenolpyruvate, 15 U/mL pyruvate kinase, compounds at different concentrations at final DMSO concentrations of 1%.
The enzymatic reaction is then started by addition of a mixture of NADH, acetyl Coenzyme A (both 200 μM f.c.) and ATP (500 uM f.c.). The decrease of the optical density (slope S) is then determined at 25° C. at a wavelength of 340 nm over 15 minutes in a spectrophotometric reader.
Each assay microtiter plate contains wells with vehicle instead of compound as controls for the non-inhibited enzyme (100% CTL; ‘HIGH’) and wells without acetyl-CoA as controls for non-specific NADH degradation (0% CTL; ‘LOW’).
The slope S is used for calculation of % CTL=(S(compound)−S(‘LOW’))/(S(‘HIGH’)−S(‘LOW’))*100. Compounds will give values between 100% CTL (no inhibition) and 0% CTL (complete inhibition).
For IC50 value determination, the sample slope in the presence of the test compound after subtraction of the low controls (S(compound)−S(‘LOW’)) are used. An IC50 value is derived from the compound slopes at different dosages after subtraction of the low controls (S(compound)−S(‘LOW’)) by non-linear regression curve fitting (equation y=(A+((B−A)/(1+((C/x)^D))))).

human ACC2, sequence (O00763 129-2458): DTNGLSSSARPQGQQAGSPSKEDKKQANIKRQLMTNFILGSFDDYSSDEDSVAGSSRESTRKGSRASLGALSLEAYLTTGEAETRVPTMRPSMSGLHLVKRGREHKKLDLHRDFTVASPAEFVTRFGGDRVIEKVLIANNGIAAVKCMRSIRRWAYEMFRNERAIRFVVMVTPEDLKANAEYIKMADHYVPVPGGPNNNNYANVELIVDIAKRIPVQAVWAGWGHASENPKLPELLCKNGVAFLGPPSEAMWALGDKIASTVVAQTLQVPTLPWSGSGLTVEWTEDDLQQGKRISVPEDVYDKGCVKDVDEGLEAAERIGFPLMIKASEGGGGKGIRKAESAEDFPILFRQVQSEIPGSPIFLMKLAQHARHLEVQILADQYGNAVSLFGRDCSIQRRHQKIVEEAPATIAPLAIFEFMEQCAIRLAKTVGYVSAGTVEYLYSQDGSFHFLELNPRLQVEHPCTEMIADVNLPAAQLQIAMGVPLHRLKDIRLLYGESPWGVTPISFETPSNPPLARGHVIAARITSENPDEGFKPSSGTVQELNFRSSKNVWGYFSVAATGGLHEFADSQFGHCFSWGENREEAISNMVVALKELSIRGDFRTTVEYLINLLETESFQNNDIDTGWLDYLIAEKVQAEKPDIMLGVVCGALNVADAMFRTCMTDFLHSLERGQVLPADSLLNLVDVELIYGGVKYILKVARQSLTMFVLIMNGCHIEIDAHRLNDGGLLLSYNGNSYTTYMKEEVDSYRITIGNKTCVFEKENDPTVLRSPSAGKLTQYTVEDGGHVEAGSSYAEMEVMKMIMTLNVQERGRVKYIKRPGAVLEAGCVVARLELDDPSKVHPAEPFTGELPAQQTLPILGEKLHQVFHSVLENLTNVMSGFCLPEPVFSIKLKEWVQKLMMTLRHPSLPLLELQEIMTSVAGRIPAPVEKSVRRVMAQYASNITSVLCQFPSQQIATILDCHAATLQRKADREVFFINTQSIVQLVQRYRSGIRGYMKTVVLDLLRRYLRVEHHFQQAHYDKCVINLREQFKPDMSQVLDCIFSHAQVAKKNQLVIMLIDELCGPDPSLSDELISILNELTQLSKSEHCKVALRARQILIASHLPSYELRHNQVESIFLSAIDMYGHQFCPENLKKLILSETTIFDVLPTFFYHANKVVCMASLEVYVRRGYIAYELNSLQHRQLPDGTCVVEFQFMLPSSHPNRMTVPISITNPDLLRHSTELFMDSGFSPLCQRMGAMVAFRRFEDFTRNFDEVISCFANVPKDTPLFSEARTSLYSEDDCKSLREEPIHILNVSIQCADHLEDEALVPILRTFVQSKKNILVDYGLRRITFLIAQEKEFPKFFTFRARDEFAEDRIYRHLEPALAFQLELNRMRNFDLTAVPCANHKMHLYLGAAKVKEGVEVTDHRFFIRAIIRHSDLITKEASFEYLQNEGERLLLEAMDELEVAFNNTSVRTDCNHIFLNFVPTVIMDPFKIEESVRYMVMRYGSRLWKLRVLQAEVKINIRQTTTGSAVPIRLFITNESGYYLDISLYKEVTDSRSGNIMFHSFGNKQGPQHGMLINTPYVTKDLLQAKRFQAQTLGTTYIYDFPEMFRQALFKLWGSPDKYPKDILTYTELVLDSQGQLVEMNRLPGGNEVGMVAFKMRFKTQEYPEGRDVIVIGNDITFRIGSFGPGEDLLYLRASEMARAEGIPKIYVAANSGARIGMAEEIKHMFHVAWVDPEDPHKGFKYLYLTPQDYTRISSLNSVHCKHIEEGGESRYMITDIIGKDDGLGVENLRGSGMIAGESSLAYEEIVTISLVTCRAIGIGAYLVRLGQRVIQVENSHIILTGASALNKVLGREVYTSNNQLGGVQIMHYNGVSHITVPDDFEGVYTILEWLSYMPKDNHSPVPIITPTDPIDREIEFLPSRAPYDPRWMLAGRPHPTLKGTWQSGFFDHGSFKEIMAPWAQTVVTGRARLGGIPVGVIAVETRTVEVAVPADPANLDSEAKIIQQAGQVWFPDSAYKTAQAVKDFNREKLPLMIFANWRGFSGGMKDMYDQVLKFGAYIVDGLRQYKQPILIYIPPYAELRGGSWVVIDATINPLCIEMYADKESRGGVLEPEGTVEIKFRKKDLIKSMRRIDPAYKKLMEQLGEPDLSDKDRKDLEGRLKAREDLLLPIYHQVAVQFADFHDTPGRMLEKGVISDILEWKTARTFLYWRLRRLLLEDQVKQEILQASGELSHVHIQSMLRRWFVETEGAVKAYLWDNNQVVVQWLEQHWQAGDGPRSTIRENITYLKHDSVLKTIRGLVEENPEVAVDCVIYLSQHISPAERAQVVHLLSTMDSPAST

SMILES | IC50 [nM]
CCNc1ncc(C#Cc2ccc([C@H](C)NC(C)=O)cc2)cn1 [Example 13.95] | 2800
CC(=O)NC(C)Cc1ccc(C#Cc2cccc(C(=O)N3CCC(c4ccncc4)C3)c2)cc1 (stereo not drawn) [Example 8.31] | 14500
CC(=O)NC(C)Cc1ccc(C#Cc2ccc(C(=O)NC3CCCC3)cc2)cc1 (stereo not drawn) [Example 8.4] | 1600
CC(=O)NC(C)Cc1ccc(C#Cc2ccc(OC3COC3)cc2)cc1 (stereo not drawn) [Example 31.2] | 200
CC#CCN(CC(C)C)c1nccc(C#Cc2ccc(CC(C)NC(C)=O)cc2)n1 (stereo not drawn) [Example 11.25] | 1800
CCCOc1ncc(C#Cc2ccc(CC(C)NC(=O)N(C)C)cc2)cn1 (stereo not drawn) [Example 12.30] | 190
CCOc1ccc(C#Cc2ccc(CC(C)NC(=O)c3cc[nH]n3)cc2)cc1 (stereo not drawn) [Example 4.16] | 1600
CCN(C)c1nccc(C#Cc2ccc(CC(C)NC(C)=O)cc2)n1 (stereo not drawn) [Example 11.4] | 530
CC(=O)NC(C)Cc1ccc(C#Cc2cc(OCc3ccccc3)ncn2)cc1 (stereo not drawn) [Example 2.78] | 750
CC(=O)NC(C)CCc1ccc(C#Cc2cnc(OC3CCC3)nc2)cc1 (stereo not drawn) [Example 14.54] | 240
CC(=O)NC(C)Cc1ccc(C#Cc2ccnc(N(C)CC3CCCCC3)n2)cc1 (stereo not drawn) [Example 11.23] | 370
CC(=O)NC(C)Cc1ccc(C#Cc2ccc(N3CCCCC3=O)cc2)cc1 (stereo not drawn) [Example 2.6] | 1400
CC(=O)NC(C)Cc1ccc(C#Cc2ccc(OC(F)(F)F)cc2)cc1 (stereo not drawn) [Example 14.50] | 1500
CCOc1ccc(C#Cc2ccc(C(C)NC(C)=O)cc2)cn1 (stereo not drawn) [Example 14.2] | 5900
CC(=O)N[C@@H](C)c1ccc(C#Cc2cnc(NC3CC3)nc2)cc1 [Example 13.90] | 960
CC(=O)NC(C)Cc1ccc(C#Cc2ccc(OCC3(C)COC3)cc2)cc1 (stereo not drawn) [Example 9.33] | 340
CCOc1ccc(C#Cc2ccc(C(C)NC(=O)Nc3cccnc3)cc2)cc1 (stereo not drawn) [Example 6.2] | 2200
CCCCOc1ccc(C#Cc2ccc(CC(C)NC(C)=O)cc2)nn1 (stereo not drawn) [Example 2.88] | 880
CC(=O)NC(C)Cc1ccc(C#Cc2cnc(NCC3CCC3)nc2)cc1 (stereo not drawn) [Example 13.17] | 180
CCOc1ccc(C#Cc2ccc(CC(C)NC(=O)C3(O)CC3)cc2)cc1 (stereo not drawn) [Example 4.12] | 560
CC(=O)NC(C)Cc1ccc(C#Cc2ccnc(OC3CCC3)n2)cc1 (stereo not drawn) [Example 12.6] | 1100
CC(Cc1ccc(C#Cc2cnc(NCc3cccnc3)nc2)cc1)NC(=O)C1CC1 (stereo not drawn) [Example 13.46] | 2700
CC(=O)NC(C)Cc1ccc(C#Cc2ccc3ncccc3c2)cc1 (stereo not drawn) [Example 2.74] | 1100
CC(=O)NC(C)Cc1ccc(C#Cc2ccc(C(C)(C)C)cc2)cc1 (stereo not drawn) [25.1] | 140
CCC(C)CNc1ncc(C#Cc2ccc(CC(C)NC(C)=O)cc2)cn1 (stereo not drawn) [Example 13.84] | 1000

SMILES | IC50 [nM]
COCC1CCCN1c1nccc(C#Cc2ccc(CC(C)NC(C)=O)cc2)n1 (stereo not drawn) [Example 11.35] | 2400
CC(=O)N[C@@H](C)c1ccc(C#Cc2cnc(OCC3CC3)nc2)cc1 [Example 12.59] | 1600
CCCN(C)C(=O)c1cccc(C#Cc2ccc(CC(C)NC(C)=O)cc2)c1 (stereo not drawn) [Example 8.25] | 2400
CCOC(=O)c1cccc(C#Cc2ccc(CC(C)NC(C)=O)cc2)c1 (stereo not drawn) [Example 2.2] | 390
CCCOc1ccc(C#Cc2ccc(C(C)NC(C)=O)cc2)c(OC)c1 (stereo not drawn) [Example 2.51] | 1300
CCOc1ccc(C#Cc2ccc(CC(C)NC(=O)c3cncs3)cc2)cc1 (stereo not drawn) [Example 4.67] | 70
CCCN(C)c1nccc(C#Cc2ccc(CC(C)NC(C)=O)cc2)n1 (stereo not drawn) [Example 11.46] | 290
CC(=O)NC(C)Cc1ccc(C#Cc2ccn(C(C)C)c(=O)c2)cc1 (stereo not drawn) [Example 2.84] | 5800
CCOc1ccc(C#Cc2ccc(C(C)NC(=O)c3cn[nH]c3)cc2)cc1 (stereo not drawn) [Example 4.55] | 330
CCNC(=O)c1cccc(C#Cc2ccc(CC(C)NC(C)=O)cc2)c1 (stereo not drawn) [Example 8.38] | 14300
CC(=O)NCC(C)c1ccc(C#Cc2cnc(OC3CCC3)nc2)cc1 (stereo not drawn) [Example 32.3] | 70
CCCOc1ccc(C#Cc2ccc(CC(C)NC(C)=O)cc2)cn1 (stereo not drawn) [Example 2.27] | 280
CCCOc1cc(C#Cc2ccc(CC(C)NC(C)=O)cc2)ccn1 (stereo not drawn) [Example 2.14] | 130
COc1ccc(C#Cc2ccc(CCC(C)NC(C)=O)cc2)cn1 (stereo not drawn) [Example 14.8] | 1300
CC(=O)NC(C)Cc1ccc(C#Cc2ccc(Oc3cncnc3)nc2)cc1 (stereo not drawn) [Example 2.26] | 930
CC(=O)NC(C)Cc1ccc(C#Cc2ccnc(N3CCN(C)CC3)n2)cc1 (stereo not drawn) [Example 11.37] | 14300
CC(=O)NC(C)Cc1ccc(C#Cc2ccnc(Nc3ccccc3)n2)cc1 (stereo not drawn) [Example 11.41] | 2700
COCCn1cncc1COc1ccc(C#Cc2ccc(CC(C)NC(C)=O)cc2)cc1 (stereo not drawn) [Example 9.34] | 6400
CC(=O)NC(C)Cc1ccc(C#Cc2cnc(NCc3ccccc3)nc2)cc1 (stereo not drawn) [Example 13.6] | 100
CC(=O)NC(C)c1ccc(C#Cc2ccc(OC3CC3)cc2)cc1 (stereo not drawn) [Example 2.55] | 70
CC(=O)NC(C)Cc1ccc(C#Cc2cnc(N3Cc4ccccc4C3)nc2)cc1 (stereo not drawn) [Example 13.64] | 800
COC(=O)c1cc(C#Cc2ccc(CC(C)NC(C)=O)cc2)ccn1 (stereo not drawn) [Example 3.10] | 4500
CCOc1ccc(C#Cc2ccc(CC(CC)NC(C)=O)cc2)cc1 (stereo not drawn) [Example 27.3] | 150
CC(=O)NC(C)Cc1ccc(C#Cc2ccc(OCCc3cn[nH]c3)cc2)cc1 (stereo not drawn) [Example 9.36] | 420
CCCc1ccc(C#Cc2ccc(C(C)NC(C)=O)cc2)cc1 (stereo not drawn) [Example 2.46] | 410

SMILES | IC50 [nM]
CC(=O)NC(C)Cc1ccc(C#Cc2ccc(C(=O)NCc3ccncc3)cc2)cc1 (stereo not drawn) [Example 8.11] | 16600
CC(=O)NC(C)Cc1ccc(C#Cc2cccc(N(C)C)n2)cc1 (stereo not drawn) [Example 3.13] | 1700
CSc1ccc(C#Cc2ccc(C(C)NC(C)=O)cc2)cc1 (stereo not drawn) [Example 2.101] | 350
CCOCCOc1ccc(C#Cc2ccc(CC(C)NC(C)=O)cc2)cc1 (stereo not drawn) [Example 9.19] | 280
CC(=O)NC(C)Cc1ccc(C#Cc2cnc(N3CCC4(CC4)C3)nc2)cc1 (stereo not drawn) [Example 13.72] | 190
CC(=O)NC(C)Cc1ccc(C#Cc2ccc(C(=O)NCC3CCCO3)cc2)cc1 (stereo not drawn) [Example 8.7] | 26300
CC(=O)NC(C)Cc1ccc(C#Cc2ccc(OC3CCCC3)nc2)cc1 (stereo not drawn) [Example 2.25] | 170
CCCOc1ccc(C#Cc2ccc(CC(C)NC(C)=O)cc2)c(Cl)c1 (stereo not drawn) [Example 2.93] | 80
CCOc1ncc(C#Cc2ccc([C@H](C)NC(C)=O)cc2)cn1 [Example 12.69] | 2600
CCOc1ccc(C#Cc2ccc(CC(C)NC(=O)C(C)(C)F)cc2)cc1 (stereo not drawn) [Example 4.49] | 8700
CC(=O)NC(C)Cc1ccc(C#Cc2ccc(OCCc3ccncc3)cc2)cc1 (stereo not drawn) [Example 9.23] | 400
CCOc1ccc(C#Cc2ccc(CC(C)NC(=O)c3ocnc3C)cc2)cc1 (stereo not drawn) [Example 4.71] | 430
CC(=O)N[C@@H](C)c1ccc(C#Cc2ccc(OC(C)C)cc2)cc1 [Example 14.20] | 510
COCCCOc1cccc(C#Cc2ccc(CC(C)NC(C)=O)cc2)c1 (stereo not drawn) [Example 9.13] | 630
CC(=O)NCCc1ccc(C#Cc2ccc(OCC(C)C)cc2)cc1 [Example 14.34] | 600
CCOc1ccc(C#Cc2ccc(CC(C)NC(=O)C(=O)CC)cc2)cc1 (stereo not drawn) [Example 4.24] | 1000
CC(=O)NC(C)Cc1ccc(C#Cc2ccnc(N3CCC(C(F)(F)F)CC3)n2)cc1 (stereo not drawn) [Example 11.18] | 510
CC(=O)NC(C)Cc1ccc(C#Cc2cnc(NC3CCOC3)nc2)cc1 (stereo not drawn) [Example 13.19] | 670
CCOc1ccc(C#Cc2ccc(CC(C)NC(=O)CN(C)C)cc2)cc1 (stereo not drawn) [Example 4.10] | 1100
CC(=O)NC(C)Cc1ccc(C#Cc2cnc(N3CCCCC3)nc2)cc1 (stereo not drawn) [Example 13.7] | 260
CC(Cc1ccc(C#Cc2cnc(N3CCCCC3)nc2)cc1)NC(=O)C1CC1 (stereo not drawn) [Example 13.45] | 910
CCCOc1cc(C#Cc2ccc(CCNC(C)=O)cc2)ccn1 [Example 14.39] | 1100
COc1ccc(Oc2ncc(C#Cc3ccc(CC(C)NC(C)=O)cc3)cn2)cn1 (stereo not drawn) [Example 12.40] | 630
CCOc1ccc(C#Cc2ccc(CC(C)NC(=O)N(C)CC)cc2)cc1 (stereo not drawn) [Example 7.3] | 360
CC(=O)NC(C)Cc1ccc(C#Cc2ccc(OCc3nccs3)cc2)cc1 (stereo not drawn) [Example 31.1, N-(1-Methyl-2-(4-(4-(thiazol-2-ylmethoxy)-phenylethynyl)-phenyl)-ethyl)-acetamide] | 1700
